In test [1] the test system is HaCaT cells. Description: Proton induced uptake (PIU) in HaCaT cells, FACS. It counts as cell-based, human. The following applies: for extent of PIU of dextran-FITC compared to normal cells: 25 μM added 10 minutes prior, pH 5.2 for 10 minutes, dextran-FITC 70 kDa; for effect of actin cytoskeleton modifier on rate of PIU of dextran-FITC: latrunculin-A 1 μM, cytochalasin-B 10 μM, wortmannin 1 μM, calyculin-A 50 nM, 15 minutes before, pH 5.25 10 minutes, 70 kD dextran-FITC 5 μM. On the procedure: FIG. 6 is a chart showing PIU of molecules different by size and charge, in accordance with some embodiments of the invention. Hacat cultures were exposed to solutions of pH 5.2 or pH 7.4 for 5 minutes period, in the presence of different fluorescence molecules (All at 25 μM concentration). FACS analysis results (FL1, geometrical mean±SD) for the cell cultures exposed to pH 5.2 are presented as fold induction relative to results obtained for cells exposed to pH 7.4. This can be used, in some embodiments of the invention, to assess effect of molecule size and charge on uptake.
FIGS. 7A-7B are charts showing the comparison of PIU in adherent and suspended HaCaT cells, in accordance with some embodiments of the invention. For FIG. 7A, HaCaT cells were tested either at their adherent state, or following harvest at a suspended state. […] FACS analyses (FL1) in terms of geometrical mean±SD are presented as fold induction relative to the constitutive uptake at physiological pH 7.4. n=9 in 3 independent experiments. For FIG. 7B, HaCaT Cells were cultivated at low, medium or high cell density. […] The cultures were harvested and undergone FACS analyses (FL1) in terms of geometrical mean±SD and are presented as fold induction relative to the constitutive uptake of low density cultures. Statistical significance was tested against the confluent culture, n=9 in 3 independent experiments. In the charts, * indicates a t-test p<0.05; and ** indicates a t-test p<0.01. This can be used, in some embodiments of the invention, to assess effect of cell membrane rigidity and/or tissue structure on uptake.
FIGS. 12A-12B are a chart and images which show the relative change of PIU by modifiers of actin cytoskeleton organization, in accordance with some embodiments of the invention. […].

For test [2], the system named is COS 5-7 cells. Description: Intracellular oxidative stress (DCF fluorescence) after exposure to EPT, FACS. The format is cell-based, African green monkey. The following applies: EPT 20V/cm. The text has this:
FIG. 18 is a chart of intracellular oxidative stress in the presence of anti-oxidants in the extracellular and the intracellular compartments, in accordance with some embodiments of the invention. The intracellular oxidative stress measured by intracellular DCF fluorescent intensity following cell exposure to electric pulse train, analyzed by FACS (488/530 nm). Results are given as folds of geometrical mean±SD relative to the level of constitutive oxidative stress. Statistical t-test results: 2 mM SAA; p<0.05, 1 mM DHA; p<0.01.
Harvested cells were incubated with H2DCF-DA (20 μM for 90 minutes 5% CO2 at 37°). Following the loading process the cells were washed once with HBSS before exposure to EPT. H2DCF-DA is a non-fluorescent form of fluorescein, passively permeating into the cell where it is cleaved by cytosolic esterase to H2DCF. It gains its fluorescent properties when oxidized into DCF. DCF intensity was analyzed by FACS using the 530/30 nm channel.
The intracellular OS level was monitored by H2DCF, a non-fluorescent probe that is oxidized by radical hydroxyls into the fluorescent DCF form. Following the cells pre-loading with H2DCF, OS levels, as monitored by intracellular DCF fluorescence intensity, are elevated only in those cells suspended and exposed to EPT in the anode compartment (20V/cm, 200 mA/cm^2). […]

Test [3] has as its system COS 5-7 cells. Kind of test: Uptake after one minute of electric pulse train (EPT) in three-compartment device, FACS. It counts as cell-based, African green monkey. The conditions noted are these: in the presence of both 2 mM SAA and 1 mM DHA.
Method: Exposure of cells to low-intensity trains of unipolar rectangular voltage pulses was carried in a three-compartment exposure set-up where the anode and cathode were connected to an electric pulse generator (Grass S44 Stimulator). The exposure set-up consisted of a rectangular chamber made from polystyrene, 15 mm long, 10 mm wide, with 0.5 cm^2 area platinum electrodes positioned on the extreme sides (see FIG. 15). The chamber is divided by two porous membranes (PolyEtherSulfon, 0.8 μm pores, 200 μm depth), into three distinct and equal compartments: anode, cathode and center ones. The electric field parameters applied were monitored on line by recording the voltage and the current (by means of a wide band current probe, Pearson) on an oscilloscope. Typically, a cell suspension (1*10^6 cells/ml) is exposed to a train of electric pulses consisting of unipolar rectangular pulses with duration of 180 μs, frequency of 500 Hz for the total time of exposure of one minute.
Flow cytometry analysis was carried out by FACSort (Becton @ Dickson, San Jose, Calif.), employing a 488-nm argon laser excitation. […] Ten thousand cells were examined for each sample and data were collected in the list mode. The analysis of flow cytometry data was performed using WINMDI 2.9 software (Joe Trotter, The Scripps Research Institute). For each sample the geometrical mean was calculated without including PI stained cells. Cell intensity was determined as fold of induction relative to cells' constitutive uptake.
Test [4] deals with COS 5-7 cells. Description: Uptake after one minute of chemically induced low pH (HCl added to HBSS suspension), FACS. The conditions noted are these: 50 mM. The format is cell-based, African green monkey. As for the experimental part: The following tables show a connection between pH and current. […] The values in the tables are shown as folds relative to the uptake in cells unexposed to any of the treatments. […] The results are expected to be substantially independent of cell type and molecule used, except for a cell-specific change and a molecule specific change.
Cells (COS 5-7) were harvested, re-suspended in DMEM (1 mg/ml glucose, 5% FCS), and incubated (37°, 5% CO2) as designated by the experiment. For uploading the cells with either H2DCF-DA (20 μM) or Bis-DHA (1 mM) incubation lasted 90 minutes. When no pre-treatments were required, the cells were kept in the DMEM for 30 minutes. Following incubation, the cells were centrifuged at 400g for 1 min, the solution aspirated, and cells re-suspended in HBSS exposure media.
Exposure of cells to pulse acidification was through the addition of HCl to the HBSS suspension for 60 seconds, terminated by the addition of a three fold larger volume of DMEM-H.
Cell suspensions were centrifuged (400g for one minute), their solutions aspirated and they were re-suspended with 0.5 ml DMEM-H supplemented with 10u/ml dextranase (Sigma-Aldrich) for 10 minutes at RT. Cells were centrifuged again; their solution aspirated and they were re-suspended with 0.2 ml DMEM-H. PI (25 μg/ml) as a label for permeabilized cells and tryphan blue (0.01% w/v) as a fluorescence quenching agent for extracellular FITC (36) were added to each sample shortly before analysis
Flow cytometry analysis was carried out by FACSort (Becton @ Dickson, San Jose, Calif.), employing a 488-nm argon laser excitation. The green fluorescence of FITC was measured via 530/30 nm filter, the red fluorescence of PI was detected via a 585/42 nm filter. […] Ten thousand cells were examined for each sample and data were collected in the list mode. The analysis of flow cytometry data was performed using WINMDI 2.9 software (Joe Trotter, The Scripps Research Institute). For each sample the geometrical mean was calculated without including PI stained cells. Cell intensity was determined as fold of induction relative to cells' constitutive uptake.
After one minute incubation, cell suspensions were immediately diluted with 3 fold larger volume of cold buffered DMEM to restore pH to a normal pH of 7.5.

The conditions of test [5]: 2 mM added to medium prior to EPT (20V/cm, 200 mA/cm^2).
Method: In order to determine the EPT induced oxidative stress in the extracellular media, TMB was employed, a colorless solution that transforms into blue when oxidized. TMB was added to the media before exposure to EPT. […] Light absorbance was measured using Tecan GENios plate reader at 450 nm. […] In order to moot this possibility, OS was examined in the three-compartment device, monitored by the color conversion of TMB.

For the compound `N#CC(C#N)=NNc1cccc(Cl)c1` [CCCP], in test [1], the “extent of PIU of dextran-FITC compared to normal cells” value was “higher”.
Take `O=C1OC2C(O)COC23OC24OCC(O)C2OC(=O)C4(O)OC13O` (stereo not drawn) [DHA, Bis-Dehydroascorbic acid]: the “effect on EPT induced increase of DCF fluorescent intensity” value in test [2] (cells pre-loaded (1 mM, 90 minutes), 200 mA/cm^2) is “sufficient to abolish”. Besides, the “effect on EPT induced uptake of dextran-FITC” value in test [3] was “only a minor decrease”.
Consider `[Cl-].[Na+]` [NaCl], for which the “change in uptake when HCl is replaced by the same concentration of salt (osmolarity control)” value in test [4] is listed as “no change in uptake was observed”.
`O=C(CCc1ccc(O)cc1)c1c(O)cc(O)cc1O` [Phloretin]: the “extent of PIU of dextran-FITC compared to normal cells” value in test [1] was “higher”.
As for `O=C1O[C@H]([C@@H](O)CO)C(O)=C1O.[Na]` [SAA, Sodium ascorbic acid], the “decline of intracellular OS (DCF fluorescence)” value in test [2] (2 mM in external medium, 200 mA/cm^2, anode compartment) is on record as 66%. In addition, the “effect on TMB oxidation during electric exposure” value in test [5] is “prevented its oxidation”. For the same compound, the “effect on EPT induced uptake of dextran-FITC” value in test [3] was “only a minor decrease”.
Regarding `COC[C@@H]([C@H](O)[C@H](O)C(=O)NCC[C@H](C)c1nc(/C=C/C[C@@H]2O[C@]3(C[C@@H](O)[C@@H]2C)O[C@H]([C@H](C[C@H](O)[C@H](C)[C@H](O)[C@H](C)/C=C(C)/C(C)=C/C=C/C(C)=C\C#N)OC)[C@H](OP(=O)(O)O)C3(C)C)co1)N(C)C` [calyculin-A], the “effect of actin cytoskeleton modifier on rate of PIU of dextran-FITC” value in test [1] is listed as “relatively minute impact on PIU increase”.
Still for that read-out and setting: next, `C=C1[C@@H](C)[C@H]2[C@H](Cc3ccccc3)NC(=O)[C@]23OC(=O)/C=C/[C@H](O)CCC[C@@H](C)C/C=C/[C@H]3[C@@H]1O` [cytochalasin-B]: “doubled”.
The same measure, in the same setting: next, `C/C1=C/C(=O)O[C@@H]2C[C@@H](CC[C@H](C)/C=C\C=C\CC1)O[C@@](O)([C@@H]1CSC(=O)N1)C2` [latrunculin-A]: “only small PIU enhancement”.
Take lucifer yellow: the “extent of PIU compared with fluorescein and dextran” value in test [1] (pH 5.2 vs pH 7.4, 5 minutes, 25 μM) is on record as “lesser extent of PIU”.

The values above are taken from patent US20130004581A1, “CONTROLLING UPTAKE BY CELLS” (Ramot at Tel-Aviv University Ltd., priority 2010, published 2013).
